Measured values taken from article PMC7582770, “Synthesis of “All-Cis” Trihydroxypiperidines from a Carbohydrate-Derived Ketone: Hints for the Design of New β-Gal and GCase Inhibitors” (Molecules, 2020).
Entries after “also recorded” stand apart in the source; their conditions may differ.

Tested on: human fibroblasts derived from Gaucher patients
Experiment: Toxicity / cell viability in Gaucher patient fibroblasts during chaperoning assay
Format: cell-based
Details: at 50 and 100 µM, 4 days
Experimental: Fibroblasts with the N370S/RecNcil mutation from patients with Gaucher disease were obtained from the “Cell line and DNA Biobank from patients affected by Genetic Diseases” (Gaslini Hospital, Genova, Italy). Fibroblasts cells (15.0 × 10^4) were seeded in T25 flasks with DMEM supplemented with fetal bovine serum (10%), penicillin/streptomycin (1%), and glutamine (1%) and incubated at 37 °C with 5% CO2 for 24 h. The medium was removed, and fresh medium containing compound 10 was added to the cells and left for 4 days. The medium was removed, and the cells were washed with PBS and detached with trypsin to obtain cell pellets, which were washed four times with PBS, frozen, and lysed by sonication in water. Enzyme activity was measured as reported above. Reported data are mean S.D. (n = 2).
Pharmacological chaperoning activity
Fibroblasts with the N370S/RecNcil mutation from Gaucher disease patients were obtained from the “Cell line and DNA Biobank from patients affected by Genetic Diseases” (Gaslini Hospital, Genova, Italy). Fibroblasts cells (20.0 x 104) were seeded in T25 flasks with DMEM supplemented with fetal bovine serum (10%), penicillin/streptomycin (1%), and glutamine (1%) and incubated at 37 °C with 5% CO2 for 24 h. […] Enzyme activity was measured as reported above. […]

`CCCCCCCCCCCCN[C@H]1CNC[C@@H](O)[C@H]1O` [compound 10, (3R, 4S, 5S)-3,4-Dihydroxy-5-(Dodecylamino) Piperidine] was tested, and the “toxicity / cell viability” value was “low cell viability; also recorded: remarkable toxicity”.
